Assay results taken from the NIST ThermoML archive (doi:10.1016/j.jct.2011.10.023).

Details: Liquid, Vibrating tube method

CCCCO [butan-1-ol]
mass density [kg/m3]
Details | 278.15 K | 288.15 K | 298.15 K | 308.15 K | 318.15 K | 328.15 K | 338.15 K | 348.15 K | 358.15 K
100 kPa | 820.9 | 813.5 | 805.8 | 798 | 790.3 | 782.3 | 774 | 765.6 | 756.6
1000 kPa | 821.6 | 814.1 | 806.6 | 798.8 | 791.1 | 783.1 | 774.9 | 766.3 | 757.7
5000 kPa | 824.4 | 817 | 809.6 | 802 | 794.5 | 786.7 | 778.7 | 770.5 | 761.7
10000 kPa | 827.7 | 820.5 | 813.3 | 805.9 | 798.5 | 790.9 | 783.2 | 775.3 | 767
15000 kPa | 830.9 | 823.9 | 816.8 | 809.5 | 802.4 | 795 | 787.4 | 779.8 | 771.7
20000 kPa | 834 | 827.2 | 820.2 | 813 | 805.6 | 798.8 | 791.4 | 784 | 776.2
25000 kPa | 837 | 830.3 | 823.5 | 816.4 | 809.5 | 802.4 | 795.3 | 788 | 780.4
30000 kPa | 839.9 | 833.2 | 826.6 | 819.7 | 812.9 | 806 | 799 | 791.8 | 784.4
35000 kPa | 842.7 | 836.2 | 829.6 | 822.8 | 816.1 | 809.4 | 802.5 | 795.6 | 788.3
40000 kPa | 845.4 | 839 | 832.6 | 825.9 | 819.3 | 812.7 | 805.9 | 799.1 | 792
45000 kPa | 848.1 | 841.7 | 835.4 | 828.8 | 822.4 | 815.8 | 809.2 | 802.5 | 795.5
50000 kPa | 850.7 | 844.4 | 838.2 | 831.7 | 825.3 | 818.9 | 812.4 | 805.8 | 799
55000 kPa | 853.2 | 846.8 | 840.9 | 834.5 | 828.2 | 821.8 | 815.4 | 809 | 802.3
60000 kPa | 855.6 | 849.4 | 843.3 | 837 | 830.9 | 824.6 | 818.4 | 811.9 | 805.3

CCCCCCO [hexan-1-ol]
mass density [kg/m3]
Details | 278.15 K | 288.15 K | 298.15 K | 308.15 K | 318.15 K | 328.15 K | 338.15 K | 348.15 K | 358.15 K
100 kPa | 828.9 | 822.1 | 814.9 | 807.8 | 800.5 | 793 | 785.4 | 777.6 | 769.4
1000 kPa | 829.5 | 822.7 | 815.6 | 808.4 | 801.2 | 793.7 | 786.2 | 778.4 | 770
5000 kPa | 832 | 825.3 | 818.4 | 811.4 | 804.3 | 797 | 789.6 | 782 | 774.2
10000 kPa | 835 | 828.5 | 821.7 | 814.8 | 807.9 | 800.8 | 793.6 | 786.2 | 778.6
15000 kPa | 838 | 831.6 | 824.9 | 818.2 | 811.4 | 804.4 | 797.4 | 790.2 | 782.8
20000 kPa | 840.8 | 834.6 | 828 | 821.4 | 814.7 | 807.9 | 801 | 794.1 | 786.9
25000 kPa | 843.6 | 837.4 | 830.9 | 824.5 | 817.9 | 811.2 | 804.5 | 797.6 | 790.7
30000 kPa | 846.3 | 840.2 | 833.8 | 827.5 | 821 | 814.4 | 807.9 | 801.2 | 794.3
35000 kPa | 848.9 | 842.9 | 836.6 | 830.3 | 824 | 817.6 | 811.1 | 804.6 | 797.9
40000 kPa | 851.4 | 845.5 | 839.4 | 833.2 | 826.9 | 820.6 | 814.2 | 807.8 | 801.3
45000 kPa | 853.9 | 848 | 842 | 835.9 | 829.7 | 823.5 | 817.3 | 811 | 804.6
50000 kPa | 856.3 | 850.5 | 844.6 | 838.5 | 832.4 | 826.4 | 820.2 | 814 | 807.7
55000 kPa | 858.7 | 853 | 847.1 | 841.1 | 835.1 | 829.1 | 823.1 | 817 | 810.8
60000 kPa | 860.9 | 855.4 | 849.6 | 843.5 | 837.7 | 831.6 | 825.7 | 819.7 | 813.5

CCCCCCCCCCCO [1-undecanol]
mass density [kg/m3]
Details | 298.15 K | 308.15 K | 318.15 K | 328.15 K | 338.15 K | 348.15 K | 358.15 K
100 kPa | 827.7 | 820.9 | 814.1 | 807.4 | 800.5 | 793.3 | 786
1000 kPa | 828.2 | 821.5 | 814.7 | 808 | 801.1 | 793.8 | 786.8
5000 kPa | 830.7 | 824 | 817.4 | 810.8 | 803.9 | 797.1 | 790
10000 kPa | 833.6 | 827.1 | 820.6 | 814.1 | 807.3 | 800.8 | 793.9
15000 kPa | 836.4 | 830 | 823.7 | 817.3 | 810.6 | 804.3 | 797.6
20000 kPa | 839.2 | 832.9 | 826.6 | 820.4 | 813.8 | 807.6 | 801.1
25000 kPa | 841.8 | 835.6 | 829.5 | 823.3 | 816.9 | 810.8 | 804.4
30000 kPa | 844.4 | 838.3 | 832.3 | 826.2 | 819.9 | 813.9 | 807.7
35000 kPa | 846.9 | 840.9 | 834.8 | 829 | 822.8 | 816.9 | 810.8
40000 kPa | 849.4 | 843.4 | 837.6 | 831.7 | 825.6 | 819.9 | 813.9
45000 kPa | 851.8 | 845.9 | 840.1 | 834.4 | 828.4 | 822.7 | 816.6
50000 kPa | 854.2 | 848.3 | 842.6 | 837 | 831 | 825.5 | 819.6
55000 kPa | 856.5 | 850.7 | 845.1 | 839.5 | 833.6 | 828.1 | 822.4
60000 kPa | 858.7 | 852.9 | 847.3 | 841.8 | 836 | 830.7 | 824.9
